Experimental data from ChEMBL document CHEMBL1649393, “Synthesis and antimicrobial activity of thiosemicarbazides, s-triazoles and their Mannich bases bearing 3-chlorophenyl moiety” (2011).
Values after ≈ are worked out from the molar mass of the structure shown.

Tests used:
Format in all cases: functional
Bacillus cereus [1] = assay: Antimicrobial activity against Bacillus cereus ATCC 10876 after 18 hrs by broth microdilution method; conditions: ATCC 10876, 18 h
Micrococcus luteus [2] = assay: Antimicrobial activity against Micrococcus luteus ATCC 10240 after 18 hrs by broth microdilution method; conditions: ATCC 10240, 18 h
[3] = tested on: Staphylococcus epidermidis; assay: Antimicrobial activity against Staphylococcus epidermidis ATCC 12228 after 18 hrs by broth microdilution method; conditions: ATCC 12228, 18 h
Staphylococcus aureus [4] = assay: Antimicrobial activity against Staphylococcus aureus ATCC 25923 after 18 hrs by broth microdilution method; conditions: ATCC 25923, 18 h
Staphylococcus aureus [5] = assay: Antimicrobial activity against Staphylococcus aureus ATCC 6538 after 18 hrs by broth microdilution method; conditions: ATCC 6538, 18 h
Bacillus subtilis [6] = assay: Antimicrobial activity against Bacillus subtilis ATCC […] after 18 hrs by broth microdilution method
Escherichia coli [7] = assay: Antimicrobial activity against Escherichia coli ATCC 25922 assessed as >99.9 % reduction in CFU after 18 hrs by broth microdilution method; conditions: ATCC 25922, 18 h
Staphylococcus aureus [8] = assay: Antimicrobial activity against Staphylococcus aureus ATCC 6538 assessed as >99.9 % reduction in CFU after 18 hrs by broth microdilution method; conditions: ATCC 6538, 18 h
[9] = tested on: Staphylococcus epidermidis; assay: Antimicrobial activity against Staphylococcus epidermidis ATCC 12228 assessed as >99.9 % reduction in CFU after 18 hrs by broth microdilution method; conditions: ATCC 12228, 18 h
Micrococcus luteus [10] = assay: Antimicrobial activity against Micrococcus luteus ATCC 10240 assessed as >99.9 % reduction in CFU after 18 hrs by broth microdilution method; conditions: ATCC 10240, 18 h
Klebsiella pneumoniae [11] = assay: Antimicrobial activity against Klebsiella pneumoniae ATCC 13883 after 18 hrs by broth microdilution method; conditions: ATCC 13883, 18 h
Escherichia coli [12] = assay: Antimicrobial activity against Escherichia coli ATCC 25922 after 18 hrs by broth microdilution method; conditions: ATCC 25922, 18 h
Bacillus cereus [13] = assay: Antimicrobial activity against Bacillus cereus ATCC 10876 assessed as >99.9 % reduction in CFU after 18 hrs by broth microdilution method; conditions: ATCC 10876, 18 h
Proteus mirabilis [14] = assay: Antimicrobial activity against Proteus mirabilis ATCC 12453 after 18 hrs by broth microdilution method; conditions: ATCC 12453, 18 h, read-out: MIC
Klebsiella pneumoniae [15] = assay: Antimicrobial activity against Klebsiella pneumoniae ATCC 13883 assessed as >99.9 % reduction in CFU after 18 hrs by broth microdilution method; conditions: ATCC 13883, 18 h, read-out: MBC
Bacillus subtilis [16] = assay: Antimicrobial activity against Bacillus subtilis ATCC […] assessed as >99.9 % reduction in CFU after 18 hrs by broth microdilution method
Proteus mirabilis [17] = assay: Antimicrobial activity against Proteus mirabilis ATCC 12453 assessed as >99.9 % reduction in CFU after 18 hrs by broth microdilution method; conditions: ATCC 12453, 18 h, read-out: MBC
Staphylococcus aureus [18] = assay: Antimicrobial activity against Staphylococcus aureus ATCC 25923 assessed as >99.9 % reduction in CFU after 18 hrs by broth microdilution method; conditions: ATCC 25923, 18 h

Row | MIC (Bacillus cereus [1]) [µg/mL] | MIC (Micrococcus luteus [2]) [µg/mL] | MIC [3] [µg/mL] | MIC (Staphylococcus aureus [4]) [µg/mL] | MIC (Staphylococcus aureus [5]) [µg/mL] | MIC (Bacillus subtilis [6]) [µg/mL] | MIC (Klebsiella pneumoniae [11]) [µg/mL] | MIC (Escherichia coli [12]) [µg/mL] | MIC (Proteus mirabilis [14]) [µg/mL] | SMILES | MBC (Escherichia coli [7]) [µg/mL] | MBC (Staphylococcus aureus [8]) [µg/mL] | MBC [9] [µg/mL] | MBC (Micrococcus luteus [10]) [µg/mL] | MBC (Bacillus cereus [13]) [µg/mL] | MBC (Klebsiella pneumoniae [15]) [µg/mL] | MBC (Bacillus subtilis [16]) [µg/mL] | MBC (Proteus mirabilis [17]) [µg/mL] | MBC (Staphylococcus aureus [18]) [µg/mL]
1 | 62.5 (≈ 162 µM) | 62.5 (≈ 162 µM) | 125 (≈ 325 µM) | 62.5 (≈ 162 µM) | 31.2 (≈ 81.2 µM) | 125 (≈ 325 µM) | – | – | – | O=C(NNC(=S)Nc1ccccc1Br)c1cccc(Cl)c1 | – | – | – | – | – | – | – | – | –
2 | > 1000 | > 1000 | > 1000 | > 1000 | > 1000 | > 1000 | – | – | – | Cc1ccc(-n2c(-c3cccc(Cl)c3)n[nH]c2=S)cc1 | – | – | – | – | – | – | – | – | –
3 | 125 (≈ 308 µM) | 1000 (≈ 2470 µM) | 1000 (≈ 2470 µM) | 125 (≈ 308 µM) | > 1000 | 125 (≈ 308 µM) | 500 (≈ 1230 µM) | 1000 (≈ 2470 µM) | > 1000 | S=c1n(CN2CCCC2)nc(-c2cccc(Cl)c2)n1-c1ccc(Cl)cc1 | 1000 (≈ 2470 µM) | > 1000 | 1000 (≈ 2470 µM) | 1000 (≈ 2470 µM) | > 1000 | 1000 (≈ 2470 µM) | > 1000 | > 1000 | 125 (≈ 308 µM)
4 | > 1000 | > 1000 | > 1000 | 62.5 (≈ 195 µM) | 62.5 (≈ 195 µM) | > 1000 | – | – | – | Cc1ccc(NC(=S)NNC(=O)c2cccc(Cl)c2)cc1 | – | – | – | – | – | – | – | – | –
5 | 15.6 (≈ 40.6 µM) | 15.6 (≈ 40.6 µM) | 15.6 (≈ 40.6 µM) | 15.6 (≈ 40.6 µM) | 15.6 (≈ 40.6 µM) | 31.2 (≈ 81.2 µM) | – | – | – | O=C(NNC(=S)Nc1ccc(Br)cc1)c1cccc(Cl)c1 | – | – | – | – | – | – | – | – | –
6 | 125 (≈ 388 µM) | 125 (≈ 388 µM) | 125 (≈ 388 µM) | 125 (≈ 388 µM) | 125 (≈ 388 µM) | 125 (≈ 388 µM) | – | – | – | S=c1[nH]nc(-c2cccc(Cl)c2)n1-c1ccc(Cl)cc1 | – | – | – | – | – | – | – | – | –
7 | 250 (≈ 604 µM) | > 1000 | 250 (≈ 604 µM) | 250 (≈ 604 µM) | 500 (≈ 1210 µM) | 31.2 (≈ 75.5 µM) | – | – | – | S=c1[nH]nc(-c2cccc(Cl)c2)n1-c1ccc(I)cc1 | – | – | – | – | – | – | – | – | –
8 | > 1000 | > 1000 | > 1000 | > 1000 | > 1000 | 125 (≈ 434 µM) | – | – | – | S=c1[nH]nc(-c2cccc(Cl)c2)n1-c1ccccc1 | – | – | – | – | – | – | – | – | –
9 | 31.2 (≈ 72.4 µM) | 31.2 (≈ 72.4 µM) | 31.2 (≈ 72.4 µM) | 31.2 (≈ 72.4 µM) | 31.2 (≈ 72.4 µM) | 15.6 (≈ 36.2 µM) | – | – | – | O=C(NNC(=S)Nc1ccccc1I)c1cccc(Cl)c1 | – | – | – | – | – | – | – | – | –
10 | 1000 (≈ 2730 µM) | > 1000 | 125 (≈ 341 µM) | > 1000 | > 1000 | 1000 (≈ 2730 µM) | – | – | – | S=c1[nH]nc(-c2cccc(Cl)c2)n1-c1ccccc1Br | – | – | – | – | – | – | – | – | –
11 | > 1000 | > 1000 | > 1000 | > 1000 | > 1000 | > 1000 | – | – | – | O=C(NNC(=S)Nc1ccc(F)cc1)c1cccc(Cl)c1 | – | – | – | – | – | – | – | – | –
12 | 125 (≈ 366 µM) | 62.5 (≈ 183 µM) | 125 (≈ 366 µM) | 62.5 (≈ 183 µM) | 62.5 (≈ 183 µM) | 125 (≈ 366 µM) | – | – | – | O=C(NNC(=S)Nc1cc(F)ccc1F)c1cccc(Cl)c1 | – | – | – | – | – | – | – | – | –
13 | 1000 (≈ 3090 µM) | 1000 (≈ 3090 µM) | 250 (≈ 772 µM) | > 1000 | > 1000 | 1000 (≈ 3090 µM) | – | – | – | Fc1ccc(F)c(-n2c(-c3cccc(Cl)c3)n[nH]c2=S)c1 | – | – | – | – | – | – | – | – | –
14 | > 1000 | > 1000 | > 1000 | > 1000 | > 1000 | > 1000 | – | – | – | S=c1[nH]nc(-c2cccc(Cl)c2)n1-c1ccccc1I | – | – | – | – | – | – | – | – | –
15 | > 1000 | > 1000 | > 1000 | > 1000 | > 1000 | > 1000 | – | – | – | Fc1ccc(-n2c(-c3cccc(Cl)c3)n[nH]c2=S)cc1 | – | – | – | – | – | – | – | – | –
